Consider 4 compounds from patent publication US7084148B2, “Substituted pyrimidines as selective cyclooxygenase-2 inhibitors” (SmithKline Beecham Corporation, priority 2000, dated 2006).

The structures appear in SMILES notation.

The target of assay [1] is T1, human COX-2 (Homo sapiens, UniProt P35354).
T1 construct: expressed in transfected cells
T1 sequence (P35354 18-604): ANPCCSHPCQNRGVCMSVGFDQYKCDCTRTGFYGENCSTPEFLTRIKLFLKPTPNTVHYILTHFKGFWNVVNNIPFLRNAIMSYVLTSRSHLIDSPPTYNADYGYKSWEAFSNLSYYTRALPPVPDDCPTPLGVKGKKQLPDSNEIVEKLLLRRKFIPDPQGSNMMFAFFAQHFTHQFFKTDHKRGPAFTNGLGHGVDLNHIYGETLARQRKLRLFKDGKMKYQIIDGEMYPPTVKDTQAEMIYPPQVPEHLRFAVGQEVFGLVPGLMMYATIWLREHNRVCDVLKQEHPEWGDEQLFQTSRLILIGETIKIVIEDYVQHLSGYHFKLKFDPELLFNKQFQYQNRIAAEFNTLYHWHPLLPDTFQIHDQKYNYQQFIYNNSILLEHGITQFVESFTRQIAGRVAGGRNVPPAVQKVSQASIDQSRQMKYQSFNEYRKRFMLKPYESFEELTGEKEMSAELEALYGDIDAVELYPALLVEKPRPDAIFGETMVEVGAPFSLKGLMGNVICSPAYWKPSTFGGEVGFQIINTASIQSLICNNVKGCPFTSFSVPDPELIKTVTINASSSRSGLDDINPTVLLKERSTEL
The assay is described as follows: Inhibition of PGE2 release in COS cells stably transfected with human COX-2. The class given is cell-based. Particulars: 30 μM arachidonic acid. The method, then:
(§1) Inhibitory activity against human COX-1 and COX-2 was assessed in COS cells which had been stably transfected with cDNA for human COX-1 and human COX-2. 24 Hours prior to experiment, COS cells were transferred from the 175 cm^2 flasks in which they were grown, onto 24-well cell culture plates using the following procedure. The incubation medium (Dulbecco's modified eagles medium (DMEM) supplemented with heat-inactivated foetal calf serum (10% v/v), penicillin (100 IU/ml), streptomycin (100 μg/ml) and geneticin (600 μg/ml)) was removed from a flask of confluent cells (1 flask at confluency contains approximately 1×10^7 cells). 5 ml of phosphate buffered saline (PBS) was added to the flask to wash the cells. Having discarded the PBS, cells were then incubated with 5 ml trypsin for 5 minutes in an incubator […]. The flask was then removed from the incubator and 5 ml of fresh incubation medium was added. The contents of the flask was transferred to a 250 ml sterile container and the volume of incubation medium subsequently made up to 100 ml. 1 ml cell suspension was pipetted into each well of 4×24-well cell culture plates. The plates were then placed in an incubator (37° C., 95% air/5% CO2) overnight. If more than 1 flask of cells were required, the cells from the individual flasks were combined before being dispensed into the 24-well plates.
Following the overnight incubation, the incubation medium was completely removed from the 24-well cell culture plates and replaced with 250 μl fresh DMEM (37° C.). The test compounds were made up to 250× the required test concentration in DMSO and were added to the wells in a volume of 1 μl. Plates were then mixed gently by swirling and then placed in an incubator for 1 hour (37° C., 95% air/5% CO2). […] Plates were then incubated for a further 10 minutes, after which the incubation medium was removed from each well of the plates and stored at −20° C., prior to determination of prostaglandin E2 (PGE2) levels using enzyme immunoassay. […] The selectivity ratio of inhibition of COX-1 versus COX-2 was calculated by comparing respective IC50 values.

Assay [2] addresses T2, human COX-1 (Homo sapiens, UniProt P23219).
T2 construct: expressed in transfected cells
Put plainly: Inhibition of PGE2 release in COS cells stably transfected with human COX-1. The class given is cell-based. Particulars: 30 μM arachidonic acid. The method, then: as §1
Following the overnight incubation, the incubation medium was completely removed from the 24-well cell culture plates and replaced with 250 μl fresh DMEM (37° C.). The test compounds were made up to 250× the required test concentration in DMSO and were added to the wells in a volume of 1 μl. Plates were then mixed gently by swirling and then placed in an incubator for 1 hour (37° C., 95% air/5% CO2). Following the incubation period, 10 μl of arachidonic acid (750 μM) was added to each well to give a final arachidonic acid concentration of 30 μM. Plates were then incubated for a further 10 minutes, after which the incubation medium was removed from each well of the plates and stored at −20° C., prior to determination of prostaglandin E2 (PGE2) levels using enzyme immunoassay. The inhibitory potency of the test compound was expressed as an IC50 value, which is defined as the concentration of the compound required to inhibit the PGE2 release from the cells by 50%. The selectivity ratio of inhibition of COX-1 versus COX-2 was calculated by comparing respective IC50 values.

T2 sequence (P23219 24-599): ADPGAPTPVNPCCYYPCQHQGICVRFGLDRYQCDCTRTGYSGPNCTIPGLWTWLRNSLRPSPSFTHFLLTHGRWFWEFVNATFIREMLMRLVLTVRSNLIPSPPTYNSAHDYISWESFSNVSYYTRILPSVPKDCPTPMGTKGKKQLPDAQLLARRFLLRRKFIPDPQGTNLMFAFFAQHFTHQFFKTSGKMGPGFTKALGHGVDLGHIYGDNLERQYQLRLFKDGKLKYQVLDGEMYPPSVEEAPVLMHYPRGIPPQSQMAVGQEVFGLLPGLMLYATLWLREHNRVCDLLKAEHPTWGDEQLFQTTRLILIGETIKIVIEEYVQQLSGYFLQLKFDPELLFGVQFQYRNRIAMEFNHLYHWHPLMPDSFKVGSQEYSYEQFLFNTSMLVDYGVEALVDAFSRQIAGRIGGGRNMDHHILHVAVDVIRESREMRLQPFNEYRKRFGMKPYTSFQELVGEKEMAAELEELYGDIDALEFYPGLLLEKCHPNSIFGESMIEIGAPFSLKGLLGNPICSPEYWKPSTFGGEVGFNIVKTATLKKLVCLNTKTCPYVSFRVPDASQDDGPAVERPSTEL

The term IC50 denotes the concentration that inhibits the measured activity by half. The low end stands for greater potency, the high end for weaker potency. For the compound `CS(=O)(=O)c1ccc(-c2cc(C(F)(F)F)nc(NC3CCOCC3)n2)cc1` [Example 1, 4-[4-(methylsulfonyl)phenyl]-N-tetrahydro-2H-pyran-4-yl-6-(trifluoromethyl)pyrimidin-2-amine], the IC50 is 18 nM in assay [1] and more than 91 µM in assay [2].

In the case of `CN(c1nc(-c2ccc(S(C)(=O)=O)cc2)cc(C(F)(F)F)n1)C1CCOCC1` [Example 2, 4-[4-(Methylsulfonyl)phenyl]-N-methyl-N-tetrahydro-2H-pyran-4-yl-6-(trifluoromethyl)pyrimidin-2-amine], the IC50 in assay [1] was 16.8 nM; in assay [2] it was 60.4 µM.

Take `CCN(c1nc(-c2ccc(S(C)(=O)=O)cc2)cc(C(F)(F)F)n1)C1CCOCC1` [Example 3, 4-[4-(Methylsulfonyl)phenyl]-N-ethyl-N-tetrahydro-2H-pyran-4-yl-6-(trifluoromethyl)pyrimidin-2-amine]: the results for the IC50 in assay [1] and in assay [2] were 24.9 nM and 69.7 µM, respectively.

Take `CCCCN(c1nc(-c2ccc(S(C)(=O)=O)cc2)cc(C(F)(F)F)n1)C1CCOCC1` [Example 4, 4-[4-(Methylsulfonyl)phenyl]-N-butyl-N-tetrahydro-2H-pyran-4-yl-6-(trifluoromethyl)pyrimidin-2-amine]: the IC50 was 143 nM in assay [1] and 71.8 µM in assay [2].
